Patent publication EP0908457B1, “3-(1,2-benzisothiazol- and isoxazol-5-Y1)-2,4(1H,3H)-pyrimidinedione or thione and 3-(1,2-benzisothiazol- and isoxazol-5-y1)-4(3H)-pyrimidinone or thione herbicidal agents” (BASF AKTIENGESELLSCHAFT, priority 1997, dated 1999)

Key:
[1] = test system: Monochoria vaginalis, Presl.; assay: Preemergence weed control under flooded paddy conditions, MOOVA (Monochoria); assay type: in vivo; details: flooded paddy; as to herbicidal effect rating, MOOVA: meaning of each grade not given here
[2] = test system: Echinochloa oryzoides (Ard.) Fritsch.; assay: Preemergence weed control under flooded paddy conditions, ECHORC (Watergrass (Calif.)); assay type: in vivo; details: flooded paddy; as to herbicidal effect rating, ECHORC: meaning of each grade not given here
[3] = test system: Oryza sativa, (L.) Tebonnet; assay: Rice tolerance to post-transplant applications under flooded paddy conditions (Example 187), ORYSAT (Rice, Tebonnet); details: for herbicidal effect rating, ORYSAT (rice tolerance) / ORYSAT herbicidal effect rating / ORYSAT herbicidal rating (rice tolerance): rated three to four weeks after treatment; for herbicidal effect rating ORYSAT: rated 3-4 weeks after treatment; as to herbicidal effect rating ORYSAT: meaning of each grade not given here
[4] = test system: Sagittaria pygmaea, L.; assay: Preemergence weed control under flooded paddy conditions, SAGPY (Arrowhead (Pygmaea)); assay type: in vivo; details: flooded paddy; as to herbicidal effect rating, SAGPY: meaning of each grade not given here
[5] = test system: Cyperus iria; assay: Preemergence weed control under flooded paddy conditions, CYPIR (Rice Flatsedge); assay type: in vivo; details: flooded paddy; as to herbicidal effect rating, CYPIR: meaning of each grade not given here
[6] = test system: Cyperus serotinus, Rottb.; assay: Preemergence weed control under flooded paddy conditions, CYPSE (Flatsedge); assay type: in vivo; as to herbicidal effect rating, CYPSE: meaning of each grade not given here
[7] = 0.0313 kg/ha, preemergence weeds, rated three to four weeks after treatment
[8] = 0.0625 kg/ha, preemergence weeds, rated three to four weeks after treatment
[9] = 0.1250 kg/ha, preemergence weeds, rated three to four weeks after treatment
[10] = 0.2500 kg/ha, preemergence weeds, rated three to four weeks after treatment
[11] = Rate 0.0320 kg/ha, preemergence, rated three to four weeks after treatment
[12] = Rate 0.0620 kg/ha, preemergence, rated three to four weeks after treatment
[13] = Rate 0.1250 kg/ha, preemergence, rated three to four weeks after treatment
[14] = Rate 0.2500 kg/ha, preemergence, rated three to four weeks after treatment
[15] = Rate 0.0320 kg/ha, preemergence, rated 3-4 weeks after treatment
[16] = Rate 0.0620 kg/ha, preemergence, rated 3-4 weeks after treatment
[17] = Rate 0.1250 kg/ha, preemergence, rated 3-4 weeks after treatment
[18] = Rate 0.2500 kg/ha, preemergence, rated 3-4 weeks after treatment
[19] = Rate 0.5000 kg/ha, preemergence, rated 3-4 weeks after treatment
[20] = 0.0320 kg/ha, preemergence, rated three to four weeks after treatment
[21] = 0.0620 kg/ha, preemergence, rated three to four weeks after treatment
[22] = 0.1250 kg/ha, preemergence, rated three to four weeks after treatment
[23] = 0.2500 kg/ha, preemergence, rated three to four weeks after treatment

In the case of `Cc1ccc(S(=O)(=O)NC(=O)COc2ccc(C)cc2-c2nsc3ccc(-n4c(=O)cc(C(F)(F)F)n(C)c4=O)cc23)cc1` [Example 122, N-{{{2-{5-[3,6-Dihydro-3-methyl-2,6-dioxo-4-(trifluoromethyl)-1(2H)-pyrimidinyl]-1,2-benzisothiazol-3-yl}-p-tolyl}oxy}acetyl}-p-toluenesulfonamide], the “herbicidal effect rating, MOOVA” value [1, 7] is reported as 6.0, the “herbicidal effect rating, MOOVA” value [1, 8] is reported as 8.0 and the “herbicidal effect rating, MOOVA” value [1, 9] is reported as 9.0. The “herbicidal effect rating, MOOVA” value [1, 10] was 9.0, the “herbicidal effect rating, ECHORC” value [2, 7] was 4.0 and the “herbicidal effect rating, ECHORC” value [2, 8] was 7.0. For the same molecule, the “herbicidal effect rating, ECHORC” value [2, 9] was 8.0, the “herbicidal effect rating, ECHORC” value [2, 10] was 9.0 and the “herbicidal effect rating, ORYSAT (rice tolerance)” value (shortened to “herbicidal effect rating, ORYSAT”) ([3]; 0.0313 kg/ha) was 2.0. For the same molecule, the “herbicidal effect rating, ORYSAT” value ([3]; 0.0625 kg/ha) was 3.0, the “herbicidal effect rating, ORYSAT” value ([3]; 0.1250 kg/ha) was 4.0 and the “herbicidal effect rating, ORYSAT” value ([3]; 0.2500 kg/ha) was 4.0. The “herbicidal effect rating, SAGPY” value [4, 7] was 0.0, the “herbicidal effect rating, SAGPY” value [4, 8] was 0.0 and the “herbicidal effect rating, SAGPY” value [4, 9] was 0.0. The “herbicidal effect rating, SAGPY” value [4, 10] was 0.0, the “herbicidal effect rating, CYPIR” value [5, 7] was 0.0 and the “herbicidal effect rating, CYPIR” value [5, 8] was 0.0. The “herbicidal effect rating, CYPIR” value [5, 9] was 0.0, the “herbicidal effect rating, CYPIR” value [5, 10] was 0.0 and the “herbicidal effect rating, CYPSE” value [6, 7] was 0.0. The “herbicidal effect rating, CYPSE” value [6, 8] was 0.0, the “herbicidal effect rating, CYPSE” value [6, 9] was 0.0 and the “herbicidal effect rating, CYPSE” value [6, 10] was 0.0.

With `CCOc1ccc2sc(S(=O)(=O)NC(=O)COc3ccc(C)cc3-c3nsc4ccc(-n5c(=O)cc(C(F)(F)F)n(C)c5=O)cc34)nc2c1` [Example 289, Acetamide, 2-{{2-{5-[3,6-dihydro-3-methyl-2,6-dioxo-4-(trifluoromethyl)-1(2H)-pyrimidinyl]-1,2-benzisothiazol-3-yl}-p-tolyl}oxy}-N-[(5-ethoxybenzothiazol-2-yl)sulfonyl]-] the “MOOVA herbicidal effect rating” value [1, 11] was 0.0, the “MOOVA herbicidal effect rating” value [1, 12] was 0.0 and the “MOOVA herbicidal effect rating” value [1, 13] was 9.0. The “MOOVA herbicidal effect rating” value [1, 14] was 9.0, the “ECHORC herbicidal effect rating” value [2, 11] was 0.0 and the “ECHORC herbicidal effect rating” value [2, 12] was 2.0. For the same molecule, the “ECHORC herbicidal effect rating” value [2, 13] was 3.0, the “ECHORC herbicidal effect rating” value [2, 14] was 4.0 and the “ORYSAT herbicidal effect rating” value ([3]; Rate 0.0320 kg/ha) was 0.0. The “ORYSAT herbicidal effect rating” value ([3]; Rate 0.0620 kg/ha) was 0.0, the “ORYSAT herbicidal effect rating” value ([3]; Rate 0.1250 kg/ha) was 0.0 and the “ORYSAT herbicidal effect rating” value ([3]; Rate 0.2500 kg/ha) was 0.0. For the same molecule, the “SAGPY herbicidal effect rating” value [4, 11] was 0.0, the “SAGPY herbicidal effect rating” value [4, 12] was 0.0 and the “SAGPY herbicidal effect rating” value [4, 13] was 0.0. The “SAGPY herbicidal effect rating” value [4, 14] was 0.0, the “CYPIR herbicidal effect rating” value [5, 11] was 0.0 and the “CYPIR herbicidal effect rating” value [5, 12] was 0.0. The “CYPIR herbicidal effect rating” value [5, 13] was 9.0, the “CYPIR herbicidal effect rating” value [5, 14] was 9.0 and the “CYPSE herbicidal effect rating” value [6, 11] was 0.0. The “CYPSE herbicidal effect rating” value [6, 12] was 0.0, the “CYPSE herbicidal effect rating” value [6, 13] was 0.0 and the “CYPSE herbicidal effect rating” value [6, 14] was 0.0.

In the case of `Cc1ccc(OC(C)(C)C(=O)OC(C)C)c(-c2nsc3ccc(-n4c(=O)cc(C(F)(F)F)n(C)c4=O)cc23)c1` [Example 547, Propionic acid, 2-{{2-{5-[3,6-dihydro-3-methyl-2,6-dioxo-4-(trifluoromethyl)-1(2H)-pyrimidinyl]-1,2-benzisothiazol-3-yl}-p-tolyl}oxy}-2-methyl-, isopropyl ester], the “herbicidal effect rating, MOOVA” value [1, 15] is reported as 9.0, the “herbicidal effect rating, MOOVA” value [1, 16] is reported as 9.0 and the “herbicidal effect rating, MOOVA” value [1, 17] is reported as 9.0. The “herbicidal effect rating, MOOVA” value [1, 18] was 9.0, the “herbicidal effect rating, MOOVA” value [1, 19] was 9.0 and the “herbicidal effect rating, ECHORC” value [2, 15] was 5.4. The “herbicidal effect rating, ECHORC” value [2, 16] was 5.4, the “herbicidal effect rating, ECHORC” value [2, 17] was 5.6 and the “herbicidal effect rating, ECHORC” value [2, 18] was 9.0. The “herbicidal effect rating, ECHORC” value [2, 19] was 9.0, the “herbicidal effect rating ORYSAT” value ([3]; Rate 0.0320 kg/ha) was 2.0 and the “herbicidal effect rating ORYSAT” value ([3]; Rate 0.0620 kg/ha) was 3.0. The “herbicidal effect rating ORYSAT” value ([3]; Rate 0.1250 kg/ha) was 4.0, the “herbicidal effect rating ORYSAT” value ([3]; Rate 0.2500 kg/ha) was 4.0 and the “herbicidal effect rating ORYSAT” value ([3]; Rate 0.5000 kg/ha) was 3.0. For the same molecule, the “herbicidal effect rating, SAGPY” value [4, 15] was 2.0, the “herbicidal effect rating, SAGPY” value [4, 16] was 4.0 and the “herbicidal effect rating, SAGPY” value [4, 17] was 4.0. For the same molecule, the “herbicidal effect rating, SAGPY” value [4, 18] was 7.0, the “herbicidal effect rating, SAGPY” value [4, 19] was 3.0 and the “herbicidal effect rating, CYPIR” value [5, 15] was 7.0. For the same molecule, the “herbicidal effect rating, CYPIR” value [5, 16] was 7.0, the “herbicidal effect rating, CYPIR” value [5, 17] was 9.0 and the “herbicidal effect rating, CYPIR” value [5, 18] was 9.0. For the same molecule, the “herbicidal effect rating, CYPIR” value [5, 19] was 9.0, the “herbicidal effect rating, CYPSE” value [6, 15] was 6.0 and the “herbicidal effect rating, CYPSE” value [6, 16] was 8.0. The “herbicidal effect rating, CYPSE” value [6, 17] was 8.0, the “herbicidal effect rating, CYPSE” value [6, 18] was 7.0 and the “herbicidal effect rating, CYPSE” value [6, 19] was 0.0.

Work on `COc1cc(Cl)c(C)cc1-c1nsc2ccc(-n3c(=O)cc(C(F)(F)F)n(C)c3=O)cc12` [Example 506, 2,4(1H,3H)-Pyrimidinedione, 3-[3-(4-chloro-6-methoxy-m-tolyl)-1,2-benzisothiazol-5-yl]-1-methyl-6-(trifluoromethyl)-] yielded an MOOVA herbicidal rating [1, 20] of 8.0, an MOOVA herbicidal rating [1, 21] of 9.0 and an MOOVA herbicidal rating [1, 22] of 9.0. For the same molecule, the MOOVA herbicidal rating [1, 23] was 9.0, the ECHORC herbicidal rating [2, 20] was 7.5 and the ECHORC herbicidal rating [2, 21] was 9.0. The ECHORC herbicidal rating [2, 22] was 9.0, the ECHORC herbicidal rating [2, 23] was 9.0 and the “ORYSAT herbicidal rating (rice tolerance)” value (from here on “ORYSAT herbicidal rating”) ([3]; 0.0320 kg/ha) was 1.5. For the same molecule, the “ORYSAT herbicidal rating” value ([3]; 0.0620 kg/ha) was 1.5, the “ORYSAT herbicidal rating” value ([3]; 0.1250 kg/ha) was 1.5 and the “ORYSAT herbicidal rating” value ([3]; 0.2500 kg/ha) was 2.0. It also gave an SAGPY herbicidal rating [4, 20] of 2.5, an SAGPY herbicidal rating [4, 21] of 3.0 and an SAGPY herbicidal rating [4, 22] of 3.0. For the same molecule, the SAGPY herbicidal rating [4, 23] was 4.5, the CYPIR herbicidal rating [5, 20] was 6.5 and the CYPIR herbicidal rating [5, 21] was 8.0. For the same molecule, the CYPIR herbicidal rating [5, 22] was 9.0, the CYPIR herbicidal rating [5, 23] was 9.0 and the CYPSE herbicidal rating [6, 20] was 4.5. For the same molecule, the CYPSE herbicidal rating [6, 21] was 4.5, the CYPSE herbicidal rating [6, 22] was 4.5 and the CYPSE herbicidal rating [6, 23] was 7.0.

For `C#CCOC(=O)COc1ccc(-c2nsc3ccc(-n4c(=O)cc(C(F)(F)F)n(C)c4=O)cc23)cc1` [Example 259, Acetic acid, [p-{5-[3,6-dihydro-3-methyl-2,6-dioxo-4-(trifluoromethyl)-1(2H)-pyrimidinyl]-1,2-benzisothiazol-3-yl}phenoxy)-, 2-propynyl ester], the “MOOVA herbicidal effect rating” value [1, 11] was 6.0, the “MOOVA herbicidal effect rating” value [1, 12] was 9.0 and the “MOOVA herbicidal effect rating” value [1, 13] was 9.0. For the same molecule, the “MOOVA herbicidal effect rating” value [1, 14] was 9.0, the “ECHORC herbicidal effect rating” value [2, 11] was 0.0 and the “ECHORC herbicidal effect rating” value [2, 12] was 0.0. For the same molecule, the “ECHORC herbicidal effect rating” value [2, 13] was 0.0, the “ECHORC herbicidal effect rating” value [2, 14] was 2.0 and the “ORYSAT herbicidal effect rating” value ([3]; Rate 0.0320 kg/ha) was 1.0. For the same molecule, the “ORYSAT herbicidal effect rating” value ([3]; Rate 0.0620 kg/ha) was 1.0, the “ORYSAT herbicidal effect rating” value ([3]; Rate 0.1250 kg/ha) was 2.0 and the “ORYSAT herbicidal effect rating” value ([3]; Rate 0.2500 kg/ha) was 3.0. For the same molecule, the “SAGPY herbicidal effect rating” value [4, 11] was 0.0, the “SAGPY herbicidal effect rating” value [4, 12] was 0.0 and the “SAGPY herbicidal effect rating” value [4, 13] was 0.0. For the same molecule, the “SAGPY herbicidal effect rating” value [4, 14] was 0.0, the “CYPIR herbicidal effect rating” value [5, 11] was 0.0 and the “CYPIR herbicidal effect rating” value [5, 12] was 2.0. The “CYPIR herbicidal effect rating” value [5, 13] was 4.0, the “CYPIR herbicidal effect rating” value [5, 14] was 4.0 and the “CYPSE herbicidal effect rating” value [6, 11] was 0.0. For the same molecule, the “CYPSE herbicidal effect rating” value [6, 12] was 0.0.
